test system: PC-3 cells; test: Antiproliferative activity, Alamar Blue assay, PC-3 cells; format: cell-based, human; settings: Homo sapiens, PC-3, PC3 cells; read-out: PC3 antiproliferative activity pIC50 (converted)
Procedure, shortened: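 Resazurin-based fluorescence (540 nm ex/590 nm em) measured after 4-day compound treatment plus 24 hrs dye incubation at 37° C. Cells plated at 4.5×10^3 cells/ml, adhered 24 hr first. pIC50 from probit-derived IC50 on % viable cells versus untreated, triplicate wells.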

SMILES	IC50 [nM]
CCc1cc2ccc(C(C)(C#N)Cc3cccc(-c4cnn(C)c4)c3)cc2[nH]c1=O (stereo not drawn) [Compound 17]	10000
CCc1cc2ccc(C(C)(C#N)Cc3cccc(-c4ccccc4)c3)cc2[nH]c1=O (stereo not drawn) [Compound 18]	1260
CCc1cc2ccc(C(C)(C#N)Cc3cccc(I)c3)cc2[nH]c1=O (stereo not drawn) [Compound 19]	158
CCc1cc2ccc(C(C)(C#N)Cc3cccc(N(C)C)c3)cc2[nH]c1=O (stereo not drawn) [Compound 20]	200
CCc1cc2ccc(C(C)(C#N)Cc3cccc(N4CCOCC4)c3)cc2[nH]c1=O (stereo not drawn) [Compound 21]	2000
CCc1cc2ccc(C(C)(C#N)Cc3cccc(O)c3)cc2[nH]c1=O (stereo not drawn) [Compound 22]	7940
CCc1cc2ccc(C(C)(C#N)Cc3cccc(OCc4ccccc4)c3)cc2[nH]c1=O (stereo not drawn) [Compound 23]	5010
CCc1cc2ccc(C(C)(C#N)Cc3cccc(OCCOC)c3)cc2[nH]c1=O (stereo not drawn) [Compound 24]	1000
CCC(=O)c1cccc(CC(C)(C#N)c2ccc3cc(C)c(=O)[nH]c3c2)c1 (stereo not drawn) [Compound 173]	398
CCc1cc2ccc(C(C)(C#N)Cc3cc(C)cc(C#N)c3)cc2[nH]c1=O (stereo not drawn) [Compound 174]	200
CCc1cc2ccc(C(C)(C#N)Cc3cccc(S(F)(F)(F)(F)F)c3)cc2[nH]c1=O (stereo not drawn) [Compound 177]	3160
CCc1cc2ccc(C(C)(C#N)Cc3cccc(C4(N)CC4)c3)cc2[nH]c1=O (stereo not drawn) [Compound 180]	3160
CCc1cc2ccc(C(C)(C#N)CCCN(C)C(=O)c3ccc(F)cc3)cc2[nH]c1=O (stereo not drawn) [Compound 188]	2510
CCc1cc2ccc([C@](C)(C#N)CN(C)Cc3ccc(C#N)cc3)cc2[nH]c1=O [Compound 190]	10000
Cc1cc2ccc(C(C)(C#N)Cc3cccc(Oc4ncccn4)c3)cc2[nH]c1=O (stereo not drawn) [Compound 191]	501
Cc1cc2ccc(C(C)(C#N)Cc3cccc(Oc4ccccc4)n3)cc2[nH]c1=O (stereo not drawn) [Compound 193]	631
CCc1cc2cc(C)c(C(C)(C#N)Cc3cccc(C#N)n3)cc2[nH]c1=O (stereo not drawn) [Compound 208]	10000
CCc1cc2ccc(C(C)(C#N)Cc3ccc(Cl)nc3Cl)cc2[nH]c1=O (stereo not drawn) [Compound 212]	5010

SMILES	IC50 [nM]
COc1cc2ccc(C(C)(C#N)Cc3cccc(C#N)n3)cc2[nH]c1=O (stereo not drawn) [Compound 218]	1260
CCc1cnc(OCCC(C)(C#N)c2ccc3cc(CC)c(=O)[nH]c3c2)nc1 (stereo not drawn) [Compound 222]	3980
CCc1cc2ccc(C(C)(C#N)CCOc3nccc(OC)n3)cc2[nH]c1=O (stereo not drawn) [Compound 223]	6310
CCc1cc2ccc(C(C)(C#N)Cc3ccc(OC)nc3Cl)cc2[nH]c1=O (stereo not drawn) [Compound 224]	3160
CCc1cc2ccc(C(C)(C#N)Cc3ccc(Cl)nc3OC)cc2[nH]c1=O (stereo not drawn) [Compound 225]	794
CCc1cc2ccc(C(C)(C#N)Cc3cccc(N4CCCC4)n3)cc2[nH]c1=O (stereo not drawn) [Compound 226]	1580
Cc1cc2ccc(C(C)(C#N)Cc3cccc(C#N)n3)cc2[nH]c1=O (stereo not drawn) [Compound 227]	631
CCc1cc2ccc(C(C)(C#N)Cc3cc(OC)cc(OC)n3)cc2[nH]c1=O (stereo not drawn) [Compound 232]	251
CCc1cc2ccc(C(C)(C#N)Cc3cc(C#N)cc4c3OCC4)cc2[nH]c1=O (stereo not drawn) [Compound 236]	501
CCc1cc2ccc(C(C)(C#N)Cc3cc4ccccc4nn3)cc2[nH]c1=O (stereo not drawn) [Compound 238]	3980
Cc1cc2ccc([C@@](C)(C#N)[C@@H]3CCc4cc(Br)ccc43)cc2[nH]c1=O [Compound 240]	10000
Cc1cc2ccc([C@@](C)(C#N)[C@H]3CCc4cc(Br)ccc43)cc2[nH]c1=O [Compound 241]	794
Cc1cc2ccc([C@](C)(C#N)[C@@H]3CCc4cc(Br)ccc43)cc2[nH]c1=O [Compound 242]	79.4
Cc1cc2ccc(C(C)(C#N)C3CCc4c(Br)cccc43)cc2[nH]c1=O (stereo not drawn) [Compound 248]	794
Cc1cc2ccc(C(C)(C#N)C3CCc4ccc(Br)cc43)cc2[nH]c1=O (stereo not drawn) [Compound 249]	251
Cc1cc2ccc(C(C)(C#N)C3CCc4ccc(C#N)cc43)cc2[nH]c1=O (stereo not drawn) [Compound 250]	316
CCc1cc2ccc(C(C)(C#N)CN(C)CCc3cn(C)c4ccccc34)cc2[nH]c1=O (stereo not drawn) [Compound 303]	3160

Now from value to compound:

IC50 [nM]	SMILES
10000	Cc1cc2ccc(C(C)(C#N)C3CCc4c(C#N)cccc43)cc2[nH]c1=O (racemic) [Compound 393]
158	CCc1cc2ccc([C@@](C)(C#N)CN(C)Cc3ccc(C#N)cc3)cc2[nH]c1=O (single isomer, unassigned) [Compound 253]
10000	Cc1cc2ccc([C@](C)(C#N)C3CCc4cccnc43)cc2[nH]c1=O (single isomer, unassigned) [Compound 388]
10000	CCc1cc2ccc([C@](C)(C#N)[C@H]3CCOc4ccccc43)cc2[nH]c1=O (single isomer, unassigned) [Compound 394]
794	CCc1cc2ccc([C@@](C)(C#N)[C@H]3CCOc4ccccc43)cc2[nH]c1=O (single isomer, unassigned) [Compound 395]
7940	CCc1cc2ccc([C@](C)(C#N)C[C@H]3CCc4ccccc4O3)cc2[nH]c1=O (single isomer, unassigned) [Compound 396]
794	C=C(C)c1cccc(CC(C)(C#N)c2ccc3cc(CC)c(=O)[nH]c3c2)c1 (stereo not drawn) [Compound 254]
1000	CCc1cc2ccc(C(C#N)(CC)Cc3cccc(C#N)c3)cc2[nH]c1=O (stereo not drawn) [Compound 265]
398	CCc1cc2ccc(C(C)(C#N)Cc3cc(F)cc(C#N)c3)cc2[nH]c1=O (stereo not drawn) [Compound 266]
3160	CCc1cc2ccc(C(C#N)(CC)Cc3cccc(F)c3)cc2[nH]c1=O (stereo not drawn) [Compound 270]
5010	Cc1cc2ccc(C(C)(C#N)CCCCOc3ccccc3)cc2[nH]c1=O (stereo not drawn) [Compound 272]
1000	Cc1cc2ccc(C(C)(C#N)Cc3cc(F)cc(F)c3)cc2[nH]c1=O (stereo not drawn) [Compound 282]
200	CCc1cc2ccc(C(C)(C#N)Cc3cc(C)cc(Br)c3)cc2[nH]c1=O (stereo not drawn) [Compound 284]
1260	CCc1cc2ccc(C(C#N)(CC)Cc3cccc(OC)c3)cc2[nH]c1=O (stereo not drawn) [Compound 287]
398	Cc1cc2ccc(C(C)(C#N)Cc3cccc(Oc4ccccn4)c3)cc2[nH]c1=O (stereo not drawn) [Compound 304]
1000	CCOc1cc(N(C)C)nc(CC(C)(C#N)c2ccc3cc(CC)c(=O)[nH]c3c2)n1 (stereo not drawn) [Compound 312]
1260	CCOc1cc(C#N)nc(CC(C)(C#N)c2ccc3cc(CC)c(=O)[nH]c3c2)n1 (stereo not drawn) [Compound 315]
1260	CCc1cc2ccc(C(C#N)(CC)Cc3nc(C#N)cc(OC)n3)cc2[nH]c1=O (stereo not drawn) [Compound 316]
398	CCc1cc2ccc(C(C#N)(CC)Cc3nc(OC)cc(OC)n3)cc2[nH]c1=O (stereo not drawn) [Compound 321]
10000	CCc1cc2ccc(C(C)(C#N)Cc3ccnc(C#N)c3)cc2[nH]c1=O (stereo not drawn) [Compound 324]

IC50 [nM]	SMILES
1000	CCc1cc2ccc(C(C)(C#N)Cc3cc(C)nc(Cl)c3)cc2[nH]c1=O (stereo not drawn) [Compound 326]
1260	CCc1cc2ccc(C(C)(C#N)Cc3cc(C)nc(C#N)c3)cc2[nH]c1=O (stereo not drawn) [Compound 328]
10000	CCc1cc2ccc(C(C)(C#N)Cc3ccnc(F)c3)cc2[nH]c1=O (stereo not drawn) [Compound 330]
1580	CCc1cc2ccc(C(C)(C#N)Cc3cccc(F)n3)cc2[nH]c1=O (stereo not drawn) [Compound 331]
10000	CCc1cc2ccc([C@](C)(C#N)Cc3cc(F)cc(F)c3)cc2[nH]c1=O [Compound 333]
3980	CCc1cc2ccc(C(C)(C#N)Cc3ccc(C(F)(F)F)nc3C)cc2[nH]c1=O (stereo not drawn) [Compound 340]
6310	CCc1cc2ccc(C(C)(C#N)Cc3ccnc(Cl)c3)cc2[nH]c1=O (stereo not drawn) [Compound 341]
1260	CCc1cc2ccc(C(C#N)(CC)Cc3cccc(C#N)n3)cc2[nH]c1=O (stereo not drawn) [Compound 342]
7940	CCc1cc2ccc(C(C)(C#N)CCOc3ccnc(SC)n3)cc2[nH]c1=O (stereo not drawn) [Compound 348]
1580	CCc1cc2ccc(C(C)(C#N)CCOc3ncc(Br)cn3)cc2[nH]c1=O (stereo not drawn) [Compound 349]
398	CCc1cc2ccc(C(C)(C#N)Cc3nc(C)cc(OC)n3)cc2[nH]c1=O (stereo not drawn) [Compound 371]
794	CCc1cc2ccc(C(C)(C#N)CN3CCN(c4ncc(Br)cn4)CC3)cc2[nH]c1=O (stereo not drawn) [Compound 374]
2510	CCc1cc2ccc(C(C)(C#N)CN3CCc4ccccc4C3)cc2[nH]c1=O (stereo not drawn) [Compound 376]
10000	Cc1cc2ccc([C@@](C)(C#N)[C@@H]3CCCc4ccccc43)cc2[nH]c1=O [Compound 382]
2510	CCc1cc2ccc(C(C#N)(CC)Cc3cccc(CN)c3)cc2[nH]c1=O (stereo not drawn) [Compound 390]
10000	CCc1cc2ccc([C@](C)(C#N)C[C@H]3Cc4ccccc4O3)cc2[nH]c1=O [Compound 397]
7940	CCc1cc2ccc(C(C)(C#N)CC3Oc4ccccc4O3)cc2[nH]c1=O (stereo not drawn) [Compound 398]
316	CCc1cc2ccc(C(C#N)(CC)C3CCc4ccc(OC)cc43)cc2[nH]c1=O (stereo not drawn) [Compound 403]
79.4	Cc1cc2ccc([C@@](C)(C#N)[C@H]3CCc4ccc(Br)cc43)cc2[nH]c1=O [Compound 405]

same assay, conditions: PC3 cells

PC3 antiproliferative activity pIC50	SMILES
5.5	CCc1cc2ccc(C(C)(C#N)C3CCc4ccc(Br)cc43)cc2[nH]c1=O (single isomer, unassigned) [Compound 380]
7.0	CCc1cc2ccc(C(C)(C#N)C3CCc4ccc(Br)cc43)cc2[nH]c1=O (single isomer, unassigned) [Compound 381]
6.6	Cc1cc2ccc(C(C)(C#N)C3CCc4cc(Br)ccc43)cc2[nH]c1=O (stereo not drawn) [Compound 244]
6.4	CCc1cc2ccc(C(C)(C#N)Cc3cc(F)cc(F)c3)cc2[nH]c1=O (stereo not drawn) [Compound 402]

Source: patent US8778966B2, “Quinolinone derivatives as PARP and tank inhibitors” (Janssen Pharmaceutica, NV, priority 2007, dated 2014)
